Experimental data from PubChem BioAssay (NCI).
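48-hour exposure; five concentrations; linearly interpolated endpoints. GI50 = concentration required for 50% inhibition of growth. TGI is the concentration that stops growth completely.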

Key:
Experiment in all cases: growth of human tumour cells (NCI), 48 h
COLO 205 colon = test system: COLO 205 colon
K-562 leukemia = test system: K-562 leukemia
A498 renal = test system: A498 renal
MDA-MB-231 breast = test system: MDA-MB-231 breast
A549 NSCLC = test system: A549 NSCLC
MCF7 breast = test system: MCF7 breast
RXF 393 renal = test system: RXF 393 renal
OVCAR-5 ovarian = test system: OVCAR-5 ovarian
SNB-19 CNS = test system: SNB-19 CNS
NCI-H226 lung = test system: NCI-H226 lung
HOP-92 NSCLC = test system: HOP-92 NSCLC
CCRF-CEM leukemia = test system: CCRF-CEM leukemia
IGROV1 ovarian = test system: IGROV1 ovarian
HT29 colon = test system: HT29 colon
T-47D breast = test system: T-47D breast
SK-MEL-5 melanoma = test system: SK-MEL-5 melanoma
U251 CNS = test system: U251 CNS
NCI-H460 lung = test system: NCI-H460 lung
NCI-H522 lung = test system: NCI-H522 lung
UO-31 renal = test system: UO-31 renal
SF-268 CNS = test system: SF-268 CNS
HCC-2998 colon = test system: HCC-2998 colon
SK-MEL-28 melanoma = test system: SK-MEL-28 melanoma
CAKI-1 renal = test system: CAKI-1 renal
OVCAR-3 ovarian = test system: OVCAR-3 ovarian
HCT-116 colon = test system: HCT-116 colon
SN12C renal = test system: SN12C renal
SNB-75 CNS = test system: SNB-75 CNS
SW-620 colon = test system: SW-620 colon
NCI-H23 lung = test system: NCI-H23 lung
UACC-62 melanoma = test system: UACC-62 melanoma
SF-295 CNS = test system: SF-295 CNS
UACC-257 melanoma = test system: UACC-257 melanoma
BT-549 breast = test system: BT-549 breast
MOLT-4 leukemia = test system: MOLT-4 leukemia
HOP-62 NSCLC = test system: HOP-62 NSCLC
OVCAR-8 ovarian = test system: OVCAR-8 ovarian
SR leukemia = test system: SR leukemia
PC-3 prostate = test system: PC-3 prostate
SK-OV-3 ovarian = test system: SK-OV-3 ovarian
SF-539 CNS = test system: SF-539 CNS
SK-MEL-2 melanoma = test system: SK-MEL-2 melanoma
RPMI-8226 leukemia = test system: RPMI-8226 leukemia
NCI/ADR-RES ovarian = test system: NCI/ADR-RES ovarian
MDA-MB-435 = test system: MDA-MB-435
ACHN renal = test system: ACHN renal
HCT-15 colon = test system: HCT-15 colon
MALME-3M melanoma = test system: MALME-3M melanoma
KM12 colon = test system: KM12 colon
DU-145 prostate = test system: DU-145 prostate
OVCAR-4 ovarian = test system: OVCAR-4 ovarian
TK-10 renal = test system: TK-10 renal
LOX IMVI melanoma = test system: LOX IMVI melanoma
786-0 renal = test system: 786-0 renal
EKVX NSCLC = test system: EKVX NSCLC
HL-60(TB) leukemia = test system: HL-60(TB) leukemia

With `COC(=O)c1cc2c3cc(Cl)ccc3[nH]c2c2ncccc12` the GI50 (COLO 205 colon) was > 100 µM, the TGI (COLO 205 colon) was > 100 µM and the GI50 (K-562 leukemia) was > 100 µM. For the same compound, the TGI (K-562 leukemia) was > 100 µM, the GI50 (A498 renal) was > 100 µM and the TGI (A498 renal) was > 100 µM. The GI50 (MDA-MB-231 breast) was > 100 µM, the TGI (MDA-MB-231 breast) was > 100 µM and the GI50 (A549 NSCLC) was > 100 µM. The TGI (A549 NSCLC) was > 100 µM, the GI50 (MCF7 breast) was > 100 µM and the TGI (MCF7 breast) was > 100 µM. For the same compound, the GI50 (RXF 393 renal) was > 100 µM, the TGI (RXF 393 renal) was > 100 µM and the GI50 (OVCAR-5 ovarian) was > 100 µM. The TGI (OVCAR-5 ovarian) was > 100 µM, the GI50 (SNB-19 CNS) was > 100 µM and the TGI (SNB-19 CNS) was > 100 µM. For the same compound, the GI50 (NCI-H226 lung) was > 100 µM, the TGI (NCI-H226 lung) was > 100 µM and the GI50 (HOP-92 NSCLC) was > 100 µM. The TGI (HOP-92 NSCLC) was > 100 µM, the GI50 (CCRF-CEM leukemia) was > 100 µM and the TGI (CCRF-CEM leukemia) was > 100 µM. The GI50 (IGROV1 ovarian) was 77.4 µM, the TGI (IGROV1 ovarian) was > 100 µM and the GI50 (HT29 colon) was > 100 µM. The TGI (HT29 colon) was > 100 µM, the GI50 (T-47D breast) was 24.7 µM and the TGI (T-47D breast) was > 100 µM. The GI50 (SK-MEL-5 melanoma) was > 100 µM, the TGI (SK-MEL-5 melanoma) was > 100 µM and the GI50 (U251 CNS) was > 100 µM. The TGI (U251 CNS) was > 100 µM, the GI50 (NCI-H460 lung) was > 100 µM and the TGI (NCI-H460 lung) was > 100 µM. For the same compound, the GI50 (NCI-H522 lung) was > 100 µM, the TGI (NCI-H522 lung) was > 100 µM and the GI50 (UO-31 renal) was > 100 µM. For the same compound, the TGI (UO-31 renal) was > 100 µM, the GI50 (SF-268 CNS) was > 100 µM and the TGI (SF-268 CNS) was > 100 µM. For the same compound, the GI50 (HCC-2998 colon) was > 100 µM, the TGI (HCC-2998 colon) was > 100 µM and the GI50 (SK-MEL-28 melanoma) was > 100 µM. The TGI (SK-MEL-28 melanoma) was > 100 µM, the GI50 (CAKI-1 renal) was > 100 µM and the TGI (CAKI-1 renal) was > 100 µM. The GI50 (OVCAR-3 ovarian) was > 100 µM, the TGI (OVCAR-3 ovarian) was > 100 µM and the GI50 (HCT-116 colon) was > 100 µM. For the same compound, the TGI (HCT-116 colon) was > 100 µM, the GI50 (SN12C renal) was > 100 µM and the TGI (SN12C renal) was > 100 µM. The GI50 (SNB-75 CNS) was > 100 µM, the TGI (SNB-75 CNS) was > 100 µM and the GI50 (SW-620 colon) was > 100 µM. For the same compound, the TGI (SW-620 colon) was > 100 µM, the GI50 (NCI-H23 lung) was > 100 µM and the TGI (NCI-H23 lung) was > 100 µM. The GI50 (UACC-62 melanoma) was > 100 µM, the TGI (UACC-62 melanoma) was > 100 µM and the GI50 (SF-295 CNS) was > 100 µM. The TGI (SF-295 CNS) was > 100 µM, the GI50 (UACC-257 melanoma) was > 100 µM and the TGI (UACC-257 melanoma) was > 100 µM. For the same compound, the GI50 (BT-549 breast) was > 100 µM, the TGI (BT-549 breast) was > 100 µM and the GI50 (MOLT-4 leukemia) was > 100 µM. For the same compound, the TGI (MOLT-4 leukemia) was > 100 µM, the GI50 (HOP-62 NSCLC) was > 100 µM and the TGI (HOP-62 NSCLC) was > 100 µM. For the same compound, the GI50 (OVCAR-8 ovarian) was > 100 µM, the TGI (OVCAR-8 ovarian) was > 100 µM and the GI50 (SR leukemia) was > 100 µM. For the same compound, the TGI (SR leukemia) was > 100 µM, the GI50 (PC-3 prostate) was > 100 µM and the TGI (PC-3 prostate) was > 100 µM. For the same compound, the GI50 (SK-OV-3 ovarian) was > 100 µM, the TGI (SK-OV-3 ovarian) was > 100 µM and the GI50 (SF-539 CNS) was 51.8 µM. The TGI (SF-539 CNS) was > 100 µM, the GI50 (SK-MEL-2 melanoma) was > 100 µM and the TGI (SK-MEL-2 melanoma) was > 100 µM. For the same compound, the GI50 (RPMI-8226 leukemia) was > 100 µM, the TGI (RPMI-8226 leukemia) was > 100 µM and the GI50 (NCI/ADR-RES ovarian) was > 100 µM. The TGI (NCI/ADR-RES ovarian) was > 100 µM, the GI50 (MDA-MB-435) was > 100 µM and the TGI (MDA-MB-435) was > 100 µM. The GI50 (ACHN renal) was > 100 µM, the TGI (ACHN renal) was > 100 µM and the GI50 (HCT-15 colon) was > 100 µM. The TGI (HCT-15 colon) was > 100 µM, the GI50 (MALME-3M melanoma) was > 100 µM and the TGI (MALME-3M melanoma) was > 100 µM. For the same compound, the GI50 (KM12 colon) was > 100 µM, the TGI (KM12 colon) was > 100 µM and the GI50 (DU-145 prostate) was > 100 µM. The TGI (DU-145 prostate) was > 100 µM, the GI50 (OVCAR-4 ovarian) was > 100 µM and the TGI (OVCAR-4 ovarian) was > 100 µM. For the same compound, the GI50 (TK-10 renal) was > 100 µM, the TGI (TK-10 renal) was > 100 µM and the GI50 (LOX IMVI melanoma) was > 100 µM. For the same compound, the TGI (LOX IMVI melanoma) was > 100 µM, the GI50 (786-0 renal) was > 100 µM and the TGI (786-0 renal) was > 100 µM. The GI50 (EKVX NSCLC) was > 100 µM, the TGI (EKVX NSCLC) was > 100 µM and the GI50 (HL-60(TB) leukemia) was > 100 µM. For the same compound, the TGI (HL-60(TB) leukemia) was > 100 µM.
